Values quoted from earlier work in paper PMC10721329, “Quisinostat is a brain-penetrant radiosensitizer in glioblastoma” (JCI Insight, 2023).

Conditions: human, in vivo; cited from earlier work

Cc1[nH]c2ccccc2c1CCNCc1ccc(/C=C/C(=O)NO)cc1 [panobinostat]
hematologic toxicities compared with QST: far more common and severe (grade 3 and 4)
